Assay results from US20040030106A1, “Novel compounds and process” (priority 2000, published 2004).
Where “and” joins values, the source holds several entries; their conditions need not be identical. Equal entries are not always repeated. Bridge positions count the residues as written; N and C are the ends. Ends that are not written are not given here.

System: P14 peptides
Assay: IgG anti-peptide ELISA after immunisation of mice with P14 peptide-BSA conjugates
Type: in vivo
Settings: 25 μg conjugate IM with AS2 adjuvant on days 0, 14, 28, day 14 post III
Method: To evaluate the immunogenicity of the conjugates produced in Example 1, 10 mice per group were immunised intramuscularly (IM) on days 0, 14 and 28 with 25 μg of conjugate mixed with AS2 adjuvant (oil/water emulsion, 3D-MPL, QS21). The serologic response for the P14 peptides was analysed by ELISA on days 28 and 42 (14 post III).

Substance | IgG anti-peptide responses (midpoint titre), Average | IgG anti-peptide responses (midpoint titre), geomean
ACPEWPGSRDRCTLAG-NH2 (disulfide 2-12 (inferred)) [P14e] | 3200 | 3051
Ac-CPEWPGSRDRCGSK-NH2 (disulfide 1-11 (inferred)) [P14f] | 77521 | 73541
Ac-CWPGSRDRRCGSK-NH2 (disulfide 1-10 (inferred)) [P14I] | 48146 | 45336

Same assay, conditions: 25 μg conjugate IM with AS2 adjuvant on days 0, 14, 28, day 14 post III, one value per mouse

Substance | IgG anti-peptide responses (midpoint titre), individual mice
ACPEWPGSRDRCTLAG-NH2 (disulfide 2-12 (inferred)) [P14e] | 3151 and 2345 and 3224 and 3051 and 2873 and 4647 and 1461 and 4227 and 3821
Ac-CPEWPGSRDRCGSK-NH2 (disulfide 1-11 (inferred)) [P14f] | 67086 and 101502 and 36031 and 74838 and 56496 and 51304 and 92885 and 92868 and 113041 and 89155
Ac-CWPGSRDRRCGSK-NH2 (disulfide 1-10 (inferred)) [P14I] | 85882 and 28989 and 39268 and 39460 and 57276 and 50834 and 54664 and 62263 and 36621 and 26202

System: P15 peptides
Assay: Anti-peptide antibody response after immunisation of mice with cyclic P15-BSA conjugates
Type: in vivo
Settings: 10 mice per group, 25 μg conjugate IM with AS2 adjuvant on days 0, 14, 28; 14 days post III
Method: (§1) The P15 peptide conjugates produced in Example 1 were also used to immunise 10 mice per group,intramuscularly (IM) on days 0, 14 and 28 with 25 μg of conjugate mixed with AS2 adjuvant (oil/water emulsion, 3D-MPL, QS21). Very homogenous responses were obtained with all cyclic P15 peptides.

Substance | anti-peptide (midpoint titre), average | anti-peptide (midpoint titre), geomean
Ac-CLEDGQVMDCGSK-NH2 (disulfide 1-10 (inferred)) [P15b, 325 conjugated to BSA] | 11169 | 8385
Ac-CLEDGQVMDVDLCGGSSGGK-NH2 (disulfide 1-13 (inferred)) [P15e] | 57432 | 55207
Ac-CLEDGQVMDVDLCGSK-NH2 (disulfide 1-13 (inferred)) [P15c] | 66452 | 65685
Ac-CLEDGQVMDVDLCPREAAEGDK-NH2 [P15d] | 35118 | 32801

System: IgE
Assay: Anti-IgE antibody response after immunisation of mice with cyclic P15-BSA conjugates, by comparison with mAb 11
Type: in vivo
Settings: mAb11 equivalents, 25 μg conjugate IM with AS2 adjuvant on days 0, 14, 28, 14 days post III
Method: as §1

Substance | anti-IgE (μg/ml or mAB11 equivalent), average | anti-IgE (μg/ml or mAB11 equivalent), geomean
Ac-CLEDGQVMDCGSK-NH2 (disulfide 1-10 (inferred)) [P15b, 325 conjugated to BSA] | 70 µg/mL | 35 µg/mL
Ac-CLEDGQVMDVDLCGGSSGGK-NH2 (disulfide 1-13 (inferred)) [P15e] | 129 µg/mL | 113 µg/mL
Ac-CLEDGQVMDVDLCGSK-NH2 (disulfide 1-13 (inferred)) [P15c] | 200 µg/mL | 189 µg/mL
Ac-CLEDGQVMDVDLCPREAAEGDK-NH2 [P15d] | 174 µg/mL | 111 µg/mL

System: human basophils
Assay: Human basophil blocking assay: inhibition of Lol p I triggered histamine release
Type: cell-based
Settings: human basophils from allergic donors, triggered with allergen (Lol p I)
Text: The degree of inhibition of histamine release can be calculated using the formula:
% inhibition=1−(histamine release from test sample treated cells*)×100(histamine release from antigen stimulated cells*)
Values corrected for spontaneous release.

Substance | histamine release blocking activity of the induced antiserum
Ac-CLEDGQVMDVDLCGGSSGGK-NH2 (disulfide 1-13 (inferred)) [P15e] | inhibited histamine release
Ac-CLEDGQVMDVDLCGSK-NH2 (disulfide 1-13 (inferred)) [P15c] | inhibited histamine release
Ac-CLEDGQVMDVDLCPREAAEGDK-NH2 [P15d] | inhibited histamine release

System: human basophils
Assay: not given
Settings: not given

Substance | anaphylactogenicity of the induced antiserum
Ac-CLEDGQVMDVDLCGGSSGGK-NH2 (disulfide 1-13 (inferred)) [P15e] | without the antiserum being anaphylactogenic
Ac-CLEDGQVMDVDLCGSK-NH2 (disulfide 1-13 (inferred)) [P15c] | without the antiserum being anaphylactogenic
Ac-CLEDGQVMDVDLCPREAAEGDK-NH2 [P15d] | without the antiserum being anaphylactogenic
